Test results published in patent publication US11339130B1 (Blade Therapeutics, Inc., priority 2016, dated 2022).

Assays:
[1] = molecular target: T1, Human Calpain 2/NS1 (Homo sapiens, UniProt P17655); assay: Calpain inhibition continuous fluorescence (FRET) assay, Human Calpain 2/NS1; format: biochemical; settings: Column B; read-out: Human Calpain 2/NS1 IC50
T1 sequence (P17655 1-700): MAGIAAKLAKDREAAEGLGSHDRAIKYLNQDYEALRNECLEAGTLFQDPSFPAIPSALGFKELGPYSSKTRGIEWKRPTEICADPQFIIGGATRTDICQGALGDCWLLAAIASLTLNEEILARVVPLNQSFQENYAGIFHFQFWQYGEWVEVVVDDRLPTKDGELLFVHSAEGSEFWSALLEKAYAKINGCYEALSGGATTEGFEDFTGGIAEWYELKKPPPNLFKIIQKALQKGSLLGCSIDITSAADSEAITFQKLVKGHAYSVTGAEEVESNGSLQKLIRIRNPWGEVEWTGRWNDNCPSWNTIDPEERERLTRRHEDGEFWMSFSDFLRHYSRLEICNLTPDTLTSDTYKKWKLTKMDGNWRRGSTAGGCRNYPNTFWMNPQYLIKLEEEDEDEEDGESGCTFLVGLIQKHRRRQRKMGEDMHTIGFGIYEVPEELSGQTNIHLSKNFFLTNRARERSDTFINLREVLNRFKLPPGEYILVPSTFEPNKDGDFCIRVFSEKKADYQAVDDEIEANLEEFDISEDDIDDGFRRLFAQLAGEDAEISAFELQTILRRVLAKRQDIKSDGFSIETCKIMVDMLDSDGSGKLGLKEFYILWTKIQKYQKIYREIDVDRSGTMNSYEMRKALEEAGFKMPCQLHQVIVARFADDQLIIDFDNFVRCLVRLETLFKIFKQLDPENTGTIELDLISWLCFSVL
T1 sequence (P04632 1-268 partner): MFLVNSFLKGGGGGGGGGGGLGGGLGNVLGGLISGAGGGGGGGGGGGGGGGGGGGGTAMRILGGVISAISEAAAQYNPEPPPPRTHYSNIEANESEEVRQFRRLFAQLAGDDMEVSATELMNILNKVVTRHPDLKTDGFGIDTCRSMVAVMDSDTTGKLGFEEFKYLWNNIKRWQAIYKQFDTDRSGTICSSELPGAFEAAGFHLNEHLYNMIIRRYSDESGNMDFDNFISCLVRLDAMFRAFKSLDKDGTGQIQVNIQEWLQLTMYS
Procedure, shortened: (§1)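 Inhibitors were preincubated with calpain in 50 mM Tris pH 7.5, 100 mM NaCl, 1 mM DTT at 25C. Reactions were started with 5-FAM/QXL 520 FRET peptide substrate plus CaCl2 and read at 490/520 nm for 10 min. IC50s came from 4-parameter fits of slope rates (1-5 min).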

[2] = molecular target: T2, Human Calpain 1/NS1 (Homo sapiens, UniProt P07384); assay: Calpain inhibition continuous fluorescence (FRET) assay, Human Calpain 1/NS1; format: biochemical; settings: Column A; read-out: Human Calpain 1/NS1 IC50
T2 sequence (P07384 1-714): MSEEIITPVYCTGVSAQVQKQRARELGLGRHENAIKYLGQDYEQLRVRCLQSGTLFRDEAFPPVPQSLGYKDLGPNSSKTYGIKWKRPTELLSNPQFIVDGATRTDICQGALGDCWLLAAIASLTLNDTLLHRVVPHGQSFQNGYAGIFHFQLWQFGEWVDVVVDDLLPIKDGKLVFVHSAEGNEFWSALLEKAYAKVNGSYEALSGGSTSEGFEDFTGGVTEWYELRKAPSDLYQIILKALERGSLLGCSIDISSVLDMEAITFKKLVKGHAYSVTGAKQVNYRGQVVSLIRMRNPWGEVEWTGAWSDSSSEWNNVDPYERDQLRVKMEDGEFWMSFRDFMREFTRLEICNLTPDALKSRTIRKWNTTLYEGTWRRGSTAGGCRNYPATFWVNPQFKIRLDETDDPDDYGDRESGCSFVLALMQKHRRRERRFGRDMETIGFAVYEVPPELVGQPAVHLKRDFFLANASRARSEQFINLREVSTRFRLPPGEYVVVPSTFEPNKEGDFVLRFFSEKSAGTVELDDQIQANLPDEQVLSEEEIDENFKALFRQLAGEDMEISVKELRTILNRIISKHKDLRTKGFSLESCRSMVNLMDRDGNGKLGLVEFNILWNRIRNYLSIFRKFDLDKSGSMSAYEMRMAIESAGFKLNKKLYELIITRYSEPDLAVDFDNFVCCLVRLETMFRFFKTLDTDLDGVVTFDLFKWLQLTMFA
T2 sequence (P04632 1-268 partner): T1 sequence (P04632 1-268 partner)
Procedure, shortened: as §1

[3] = system: Calpain activity in SH-SY5Y cells (SBDP-150); assay: SH-SY5Y Spectrin western blot assay (SBDP-150 breakdown product, A23187-induced); format: cell-based; settings: Homo sapiens; Column D; SH-SY5Y cells, A23187-induced SBDP-150; read-out: SH-SY5Y Spectrin IC50
[4] = molecular target: T3, Human Calpain 9/NS1 (Homo sapiens, UniProt O14815); assay: Calpain inhibition continuous fluorescence (FRET) assay, Human Calpain 9/NS1; format: biochemical; settings: Column C; read-out: Human Calpain 9/NS1 IC50
T3 sequence (O14815 1-690): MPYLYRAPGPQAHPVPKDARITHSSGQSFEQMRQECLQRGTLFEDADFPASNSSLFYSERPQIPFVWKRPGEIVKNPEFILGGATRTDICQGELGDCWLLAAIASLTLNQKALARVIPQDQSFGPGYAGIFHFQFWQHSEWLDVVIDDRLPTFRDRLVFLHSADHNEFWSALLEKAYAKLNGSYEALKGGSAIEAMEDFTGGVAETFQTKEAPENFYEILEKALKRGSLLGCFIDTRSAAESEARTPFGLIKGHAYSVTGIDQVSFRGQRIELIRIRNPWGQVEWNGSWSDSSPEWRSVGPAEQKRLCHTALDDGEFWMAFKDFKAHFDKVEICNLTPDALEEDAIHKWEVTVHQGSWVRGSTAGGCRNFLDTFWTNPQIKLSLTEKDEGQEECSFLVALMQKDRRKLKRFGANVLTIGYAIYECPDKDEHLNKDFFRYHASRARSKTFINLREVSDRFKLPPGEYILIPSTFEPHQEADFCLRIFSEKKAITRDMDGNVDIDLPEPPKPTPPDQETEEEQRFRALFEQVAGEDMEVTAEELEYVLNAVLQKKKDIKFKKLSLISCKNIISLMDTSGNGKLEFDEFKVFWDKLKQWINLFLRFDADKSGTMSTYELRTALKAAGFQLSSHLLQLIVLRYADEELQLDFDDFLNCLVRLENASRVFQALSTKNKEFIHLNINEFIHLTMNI
T3 sequence (P04632 1-268 partner): T1 sequence (P04632 1-268 partner)
Procedure, shortened: as §1

[5] = system: Calpain activity in SH-SY5Y cells; assay: SH-SY5Y + AMC fluorescence assay (Suc-LLVY-AMC substrate); format: cell-based; settings: Column E, read-out: SH-SY5Y + AMC IC50

| SMILES | IC50 [1] | IC50 [2] | IC50 [3] | IC50 [4] | IC50 [5] |
| --- | --- | --- | --- | --- | --- |
| CCc1cc(C(=O)N[C@@H](Cc2ccccc2)C(=O)C(N)=O)n(-c2ccccc2)n1 [Compound 33, (S)—N-(4-amino-3,4-dioxo-1-phenylbutan-2-yl)-3-ethyl-1-phenyl-1H-pyrazole-5-carboxamide] | < 3 µM | < 3 µM | < 10 µM | < 3 µM | < 10 µM |
| Cn1ncc(C(=O)N[C@@H](Cc2ccccc2)C(=O)C(N)=O)c1-c1ccccc1 [Compound 45, (S)—N-(4-amino-3,4-dioxo-1-phenylbutan-2-yl)-1-methyl-5-phenyl-1H-pyrazole-4-carboxamide] | < 3 µM | < 3 µM | > 25 µM | < 3 µM | 10 to 25 µM |
| Cc1cc(C(=O)N[C@@H](Cc2ccccc2)C(=O)C(N)=O)n(-c2ncccn2)n1 [Compound 49, (S)—N-(4-amino-3,4-dioxo-1-phenylbutan-2-yl)-3-methyl-1-(pyrimidin-2-yl)-1H-pyrazole-5-carboxamide] | < 3 µM | < 3 µM | < 10 µM | < 3 µM | < 10 µM |
| NC(=O)C(=O)[C@H](Cc1ccccc1)NC(=O)c1cncn1-c1nc2ccccc2s1 [Compound 50, (S)—N-(4-amino-3,4-dioxo-1-phenylbutan-2-yl)-1-(benzo[d]thiazol-2-yl)-1H-imidazole-5-carboxamide] | < 3 µM | < 3 µM | < 10 µM | < 3 µM | > 25 µM |
| Cc1nnn(-c2ccccc2)c1C(=O)N[C@@H](Cc1ccccc1)C(=O)C(N)=O [Compound 55, (S)—N-(4-amino-3,4-dioxo-1-phenylbutan-2-yl)-4-methyl-1-phenyl-1H-1,2,3-triazole-5-carboxamide] | < 3 µM | < 3 µM | < 10 µM | < 3 µM | > 25 µM |
| Cc1cc(C(=O)N[C@@H](Cc2ccccc2)C(=O)C(N)=O)n(-c2ccc(-c3ccccc3)cc2)n1 [Compound 83, (S)-1-([1,1′-biphenyl]-4-yl)-N-(4-amino-3,4-dioxo-1-phenylbutan-2-yl)-3-methyl-1H-pyrazole-5-carboxamide] | < 3 µM | < 3 µM | < 10 µM | < 3 µM | > 25 µM |
| Cc1cccc(-n2nc(C)cc2C(=O)N[C@@H](Cc2ccccc2)C(=O)C(N)=O)n1 [Compound 84, (S)—N-(4-amino-3,4-dioxo-1-phenylbutan-2-yl)-3-methyl-1-(6-methylpyridin-2-yl)-1H-pyrazole-5-carboxamide] | < 3 µM | < 3 µM | < 10 µM | < 3 µM | < 10 µM |

The next lines start with the values.

| IC50 [1] | IC50 [2] | IC50 [3] | IC50 [4] | IC50 [5] | SMILES |
| --- | --- | --- | --- | --- | --- |
| < 3 µM | < 3 µM | < 10 µM | < 3 µM | 10 to 25 µM | Cc1noc(-c2ccccc2)c1C(=O)N[C@@H](Cc1c[nH]c2ccccc12)C(=O)C(N)=O [Compound 57, (S)—N-(4-amino-1-(1H-indol-3-yl)-3,4-dioxobutan-2-yl)-3-methyl-5-phenylisoxazole-4-carboxamide] |
| < 3 µM | < 3 µM | 10 to 25 µM | < 3 µM | > 25 µM | Cc1noc(-c2ccccc2)c1C(=O)N[C@@H](Cc1ccc(F)cc1)C(=O)C(N)=O [Compound 58] |
| < 3 µM | < 3 µM | < 10 µM | < 3 µM | < 10 µM | Cc1cc(C(=O)N[C@@H](Cc2ccccc2)C(=O)C(N)=O)n(-c2cnccn2)n1 [Compound 63, (S)—N-(4-amino-3,4-dioxo-1-phenylbutan-2-yl)-3-methyl-1-(pyrazin-2-yl)-1H-pyrazole-5-carboxamide] |
| < 3 µM | < 3 µM | < 10 µM | < 3 µM | 10 to 25 µM | Cc1cc(C(=O)N[C@@H](Cc2ccccc2)C(=O)C(N)=O)n(-c2cccc(-c3ccccc3C)c2)n1 [Compound 81, (S)—N-(4-amino-3,4-dioxo-1-phenylbutan-2-yl)-3-methyl-1-(2′-methyl-[1,1′-biphenyl]-3-yl)-1H-pyrazole-5-carboxamide] |
| < 3 µM | < 3 µM | < 10 µM | < 3 µM | > 25 µM | Cc1cc(C(=O)N[C@@H](Cc2ccccc2)C(=O)C(N)=O)n(-c2nc(-c3ccccc3)cs2)n1 [Compound 82, (S)—N-(4-amino-3,4-dioxo-1-phenylbutan-2-yl)-3-methyl-1-(4-phenylthiazol-2-yl)-1H-pyrazole-5-carboxamide] |
| < 3 µM | < 3 µM | 10 to 25 µM | < 3 µM | 10 to 25 µM | COc1cccc(-n2nc(C)cc2C(=O)N[C@@H](Cc2ccccc2)C(=O)C(N)=O)n1 [Compound 99, (S)—N-(4-amino-3,4-dioxo-1-phenylbutan-2-yl)-1-(6-methoxypyridin-2-yl)-3-methyl-1H-pyrazole-5-carboxamide] |
| < 3 µM | < 3 µM | > 25 µM | < 3 µM | > 25 µM | Cc1cc(C(=O)N[C@@H](Cc2ccccc2)C(=O)C(N)=O)n(-c2cccc(-c3ccc(F)cc3)c2)n1 [Compound 103, (S)—N-(4-amino-3,4-dioxo-1-phenylbutan-2-yl)-1-(4′-fluoro-[1,1′-biphenyl]-3-yl)-3-methyl-1H-pyrazole-5-carboxamide] |
| < 3 µM | < 3 µM | > 25 µM | < 3 µM | > 25 µM | Cc1cccc(-c2cccc(-n3nc(C)cc3C(=O)N[C@@H](Cc3ccccc3)C(=O)C(N)=O)c2)c1 [Compound 105, (S)—N-(4-amino-3,4-dioxo-1-phenylbutan-2-yl)-3-methyl-1-(3′-methyl-[1,1′-biphenyl]-3-yl)-1H-pyrazole-5-carboxamide] |
